The source of these data is patent publication US8293773B2, “1, 2, 3-triazole derivatives as new cannabinoid-1 receptor antagonists” (National Tsing Hua University, priority 2008, dated 2012).

The target in this assay is T1, human CB1 receptor (Homo sapiens, UniProt P21554).
T1 construct: expressed in transfected cells; membrane-enriched fractions
Put plainly: competitive radioligand binding assay, displacement of [3H]CP55,940, CB1. The conditions noted are these: for inhibition at 10 µM / CB1 Inhibition (%) (10 μM): percent inhibition at 10 μM; for IC50: displacement of specific [3H]-CP55940 binding in HEK 293 cells stably transfected with human CB1 receptor. The procedure: In addition, the affinity of test compounds of this invention toward CB1 and CB2 receptors was determined by competitive radioligand binding assays in vitro. This method differentiates the binding strength between compounds by their abilities in displacing a receptor-specific radioactive ligand. […] The readings of the radioactivity retained allow further analysis of receptor binding, and assist in predictions of the pharmacological activities of the test compounds.
In the assays, CB1 receptors are from human CB1 stably expressed cell lines, and CB2 receptors are from human CB2 stably expressed cell lines. For purification of membrane-enriched fractions, cells were scraped off from the culture dishes in ice-cold buffer A (50 mM Tris, 5 mM MgCl2, 2.5 mM EDTA, pH 7.4, 10% sucrose) with 1 mM PMSF. After sonication, the membrane-enriched fractions were centrifuged for 15 minutes at 2,000×g at 4° C. The supernatant was centrifuged again for 30 minutes at 43,000×g at 4° C. The final pellet was re-suspended in buffer A and stored at −80° C. The protein concentration of the purified membrane was determined by the Bradford method as described by the manual provided by Bio-Rad Laboratories, Inc., Hercules, Calif.
During the receptor binding experiments, 0.2˜8 μg of membrane fractions were incubated with 0.75 nM [^3H]CP55,940 and a test compound in the incubation buffer of 50 mM Tris-HCl, 5 mM MgCl2, 1 mM EDTA, 0.3% BSA, pH 7.4. The non-specific binding was determined by using 1 μM of CP55,940. The mixture was incubated for 1.5 hours at 30° C. in Multiscreen microplates (Millipore, Billerica, Mass.). At the completion of the incubation, the reaction was terminated by Manifold filtration and washed with ice-cold wash buffer (50 mM Tris, pH 7.4, 0.25% BSA) four times. The radioactivity bound to the filters was measured by Topcount (Perkin Elmer Inc.).
On the technique in general: Loss of bound radioactivity is the signal in a displacement assay; it reports binding, not function.

T1 sequence (P21554 whole entry): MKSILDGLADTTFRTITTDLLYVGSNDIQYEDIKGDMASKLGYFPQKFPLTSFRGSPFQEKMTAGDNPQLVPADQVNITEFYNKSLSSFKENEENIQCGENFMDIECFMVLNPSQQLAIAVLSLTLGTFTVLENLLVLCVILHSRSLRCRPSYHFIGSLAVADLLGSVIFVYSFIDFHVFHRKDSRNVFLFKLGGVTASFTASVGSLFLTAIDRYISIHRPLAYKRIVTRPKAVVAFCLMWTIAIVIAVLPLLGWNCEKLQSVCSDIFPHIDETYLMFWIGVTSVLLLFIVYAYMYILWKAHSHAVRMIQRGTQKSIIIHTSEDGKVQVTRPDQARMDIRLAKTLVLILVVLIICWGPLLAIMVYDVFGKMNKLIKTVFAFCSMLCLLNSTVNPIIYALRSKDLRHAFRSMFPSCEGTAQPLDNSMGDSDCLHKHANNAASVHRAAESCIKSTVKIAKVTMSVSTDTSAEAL

What is called inhibition is the drop in the measured response relative to a control, in per cent. One may read the IC50 as the concentration that gives 50% inhibition. Read a low IC50 as inhibition by little substance. The compound `O=C(Cn1nc(-c2ccc(Cl)cc2)c(-c2ccc(Cl)cc2Cl)n1)NCc1cccc(F)c1` [Compound 161] had an IC50 of 529 ± 144 nM. Also, the inhibition at 10 µM (Table 2) was 87.7%.

For the compound `CCCCCCNC(=O)n1nc(-c2ccc(Cl)cc2Cl)c(-c2ccc(Cl)cc2Cl)n1` [Compound 75], the inhibition at 10 µM (Table 2) was found to be 3.3%.

Under “Table 1”, `CCCCOC(=O)Cn1nnc(-c2ccc(C(F)(F)F)cc2)c1-c1ccc(C(F)(F)F)cc1` [Compound 35] returned an inhibition at 10 µM of 46%.

Where the note is “Table 1”, `CCCCN(CCCC)C(=O)Cn1nnc(-c2ccccc2)c1-c1ccccc1` [Compound 38] displayed an inhibition at 10 µM of 23.8%.

`CCCCCCCCOC(=O)Cn1nnc(-c2ccc(Cl)cc2)c1-c1ccc(Cl)cc1` [Compound 26]: the inhibition at 10 µM (Table 1) came to 51.2%.

`CCCCOC(=O)Cn1nnc(-c2ccc(OC)cc2)c1-c1ccc(OC)cc1` [Compound 34] returned an inhibition at 10 µM (Table 1) of 45.9%.

`CC1CCC(NC(=O)Cn2nc(-c3ccc(Cl)cc3)c(-c3ccc(Cl)cc3Cl)n2)CC1` (centres unmarked) [Compound 167] came in with an inhibition at 10 µM (Table 2) of 92.1%.

Where the note is “Table 2”, `CCCCOC(=O)Cn1nc(-c2ccc(Cl)cc2)c(-c2ccc(Cl)cc2Cl)n1` [Compound 118] gave an inhibition at 10 µM of 67.4%.

On to `O=C(NCc1ccccc1)n1nc(-c2ccc(Cl)cc2Cl)c(-c2ccc(Cl)cc2Cl)n1` [Compound 73], for which the inhibition at 10 µM (Table 2) is 23.8%.

With `CCCCOC(=O)Cn1nnc(-c2ccccc2F)c1-c1ccccc1` [Compound 48], the inhibition at 10 µM (Table 1) worked out at 36.1%.

`O=C(Cn1nc(-c2ccc(Cl)cc2Cl)c(-c2ccc(Cl)cc2Cl)n1)NCc1ccccc1F` [Compound 173] displayed an IC50 of 19.3 ± 3.5 nM.

The compound `CCCCOC(=O)Cn1nnc(-c2ccccc2)c1-c1ccc([N+](=O)[O-])cc1` [Compound 41] showed an inhibition at 10 µM (Table 1) of 14.7%.

Compound `CCCCCCCCNC(=O)n1nc(-c2ccc(Cl)cc2)c(-c2ccc(Cl)cc2)n1` [Compound 82] displayed an inhibition at 10 µM (Table 2) of 26.9%.

Compound `O=C(Cn1nc(-c2ccc(Cl)cc2)c(-c2ccc(Cl)cc2Cl)n1)NCc1cccc2c1OCO2` [Compound 151] displayed an IC50 of 5970 ± 2600 nM. Besides, the inhibition at 10 µM (Table 2) worked out at 61.8%.

In the case of `CCCCCCCCN(CCCCCCCC)C(=O)Cn1nnc(-c2ccccc2)c1-c1ccccc1` [Compound 39], 10 µM produced 4.1% inhibition (Table 1).

Regarding `O=C(Nc1ccc(Cl)cc1)n1nc(-c2ccc(Cl)cc2)c(-c2ccc(Cl)cc2)n1` [Compound 79], the inhibition at 10 µM (Table 2) is 1.5%.

Compound `CCC(CC)OC(=O)Cn1nnc(-c2ccc(Cl)cc2)c1-c1ccc(Cl)cc1` [Compound 33] gave an inhibition at 10 µM (Table 1) of 24.6%.

Compound `CCCCOC(=O)CNC(=O)n1nc(-c2ccc(Cl)cc2)c(-c2ccc(Cl)cc2Cl)n1` [Compound 104] showed an inhibition at 10 µM (Table 2) of 11.8%.

As to `Cc1cc(C)cc(NC(=O)n2nc(-c3ccc(Cl)cc3Cl)c(-c3ccc(Cl)cc3Cl)n2)c1` [Compound 76], 10 µM produced 12.7% inhibition (Table 2).

With `O=C(Cn1nc(-c2ccc(Cl)cc2)c(-c2ccc(Cl)cc2Cl)n1)NC1CCCCC1` [Compound 138], the IC50 turned out to be 1700 ± 425 nM.

`C[C@H](NC(=O)Cn1nc(-c2ccc(Cl)cc2)c(-c2ccc(Cl)cc2Cl)n1)C(O)(c1ccccc1)c1ccccc1` [Compound 143] had an IC50 of 789 ± 202 nM. This compound registered an inhibition at 10 µM (Table 2) of 80%.

Take `O=C(NC1CCCCC1)n1nc(-c2ccc(Cl)cc2Cl)c(-c2ccc(Cl)cc2Cl)n1` [Compound 74]: the “CB1 Inhibition (%) (10 μM)” value (Table 2) came to 50.80%.

In turn, `COC[C@H](NC(=O)Cn1nc(-c2ccc(Cl)cc2Cl)c(-c2ccc(Cl)cc2Cl)n1)[C@@H](O)c1ccccc1` [Compound 134] had a half-inhibitory concentration (IC50) of 806 ± 346 nM. The inhibition at 10 µM (Table 2) was 95.9%.

Take `O=C(c1ccccc1)n1nc(-c2ccc(Cl)cc2)c(-c2ccc(Cl)cc2)n1` [Compound 70]: for the setting “Table 2”, the inhibition at 10 µM turned out to be 16.2%.

`CCCCOC(=O)Cn1nnc(-c2cc(Cl)cc(Cl)c2)c1-c1cc(Cl)cc(Cl)c1` [Compound 23] showed an inhibition at 10 µM (Table 1) of 29.9%.

`O=C(NC1CCCCC1)n1nc(-c2ccc(Cl)cc2Cl)c(-c2ccc(Cl)cc2Cl)n1` [Compound 97]: the “CB1 Inhibition (%) (10 μM)” value (Table 2) is on record as 29.20%.

`Cc1ccccc1CNC(=O)Cn1nc(-c2ccc(Cl)cc2)c(-c2ccc(Cl)cc2Cl)n1` [Compound 148] displayed an IC50 of 592 ± 302 nM. In addition, where the note is “Table 2”, the inhibition at 10 µM turned out to be 94.5%.

For the compound `CCCCOC(=O)Cn1nnc(-c2ccccc2)c1-c1ccc(Cl)cc1` [Compound 36], 10 µM produced 35.2% inhibition (Table 1).

For the setting “Table 2”, `COc1cccc(CNC(=O)Cn2nc(-c3ccc(Cl)cc3)c(-c3ccc(Cl)cc3Cl)n2)c1` [Compound 156] came in with an inhibition at 10 µM of 69.5%.

`CCCCCCOC(=O)Cn1nc(-c2ccc(Cl)cc2Cl)c(-c2ccc(Cl)cc2Cl)n1` [Compound 115] displayed an IC50 of 4460 ± 698 nM. Also, the inhibition at 10 µM (Table 2) was determined as 72.7%.

In the case of `O=C(Cn1nc(-c2ccc(Cl)cc2Cl)c(-c2ccc(Cl)cc2Cl)n1)NC1CCCCC1` [Compound 119], testing at 10 µM (Table 2) gave an inhibition of 74.2%.

Where the note is “Table 1”, `CCCCOC(=O)Cn1nnc(-c2ccc(OC)cc2)c1-c1ccccc1` [Compound 30] registered an inhibition at 10 µM of 40%.

In turn, `CCCCOC(=O)Cn1nnc(-c2ccccc2)c1-c1ccc(C)cc1` [Compound 37] displayed an inhibition at 10 µM (Table 1) of 26.5%.

For the setting “Table 2”, `O=C(Cn1nc(-c2ccc(Cl)cc2)c(-c2ccc(Cl)cc2)n1)N1CCCCC1` [Compound 130] showed an inhibition at 10 µM of 48.6%.

The compound `O=C(Cn1nc(-c2ccc(Cl)cc2)c(-c2ccc(Cl)cc2Cl)n1)NN1CCCCC1` [Compound 142] returned an IC50 of 1850 ± 1380 nM. This compound also had an inhibition at 10 µM (Table 2) of 76.1%.

`O=C(Cn1nnc(-c2ccc(Cl)cc2Cl)c1-c1ccc(Cl)cc1)N1CCCCC1` [Compound 47] gave an inhibition at 10 µM (Table 1) of 61.8%.

In turn, `O=C(Cn1nc(-c2ccccc2)c(-c2ccccc2)n1)NC1CCCCC1` [Compound 123] registered an inhibition at 10 µM (Table 2) of 11.6%.

As for `CCOC(=O)Cn1nc(-c2ccccc2)c(-c2ccccc2)n1` [Compound 110], the inhibition at 10 µM (Table 2) turned out to be 59.1%.

With `O=C(Cn1nnc(-c2ccc(Cl)cc2)c1-c1ccc(Cl)cc1)N1CCCCC1` [Compound 16], at 10 µM the inhibition (Table 1) was 33%.

In turn, `O=C(Cn1nc(-c2ccc(Cl)cc2Cl)c(-c2ccc(Cl)cc2Cl)n1)NN1CCCCC1` [Compound 121] showed an inhibition at 10 µM (Table 2) of 70.3%.

Regarding `CCCCCCNC(=O)n1nc(-c2ccc(Cl)cc2Cl)c(-c2ccc(Cl)cc2Cl)n1` [Compound 99], the “CB1 Inhibition (%) (10 μM)” value (Table 2) is reported as 6.60%.

The compound `O=C(NC12CC3CC(CC(C3)C1)C2)n1nc(-c2ccc(Cl)cc2Cl)c(-c2ccc(Cl)cc2Cl)n1` [Compound 113] came in with an IC50 of 4500 ± 871 nM. Further, the inhibition at 10 µM (Table 2) was determined as 78.9%.

Where the note is “Table 2”, `CCCCC(=O)n1nc(-c2ccc(Cl)cc2)c(-c2ccc(Cl)cc2)n1` [Compound 83] returned an inhibition at 10 µM of 11.8%.

With `CCCCOC(=O)Cn1nnc(-c2ccccc2)c1-c1ccsc1` [Compound 42], for the setting “Table 1”, the inhibition at 10 µM came out at 35.6%.

For the compound `O=C(Cn1nnc(-c2ccccc2)c1-c1ccccc1)OCc1ccccc1` [Compound 15], under “Table 1”, the inhibition at 10 µM was determined as 35.4%.

`CCCCCCNC(=O)NNC(=O)Cn1nnc(-c2ccc(Cl)cc2)c1-c1ccc(Cl)cc1` [Compound 45] had an inhibition at 10 µM (Table 1) of 9.8%.

The compound `COc1ccc(NC(=O)n2nc(-c3ccc(Cl)cc3)c(-c3ccc(Cl)cc3)n2)cc1` [Compound 69] yielded an inhibition at 10 µM (Table 2) of 9.9%.

`O=C(Cn1nc(-c2ccc(Cl)cc2)c(-c2ccc(Cl)cc2Cl)n1)NCc1ccc(F)cc1F` [Compound 157] showed an IC50 of 217 ± 86.6 nM. The compound further returned an inhibition at 10 µM (Table 2) of 95.2%.

Under “Table 2”, `O=C(NCCc1ccccc1)n1nc(-c2ccc(Cl)cc2Cl)c(-c2ccc(Cl)cc2Cl)n1` [Compound 91] had an inhibition at 10 µM of 11.2%.

`O=C(NCCc1ccccc1)n1nc(-c2ccc(Cl)cc2Cl)c(-c2ccc(Cl)cc2Cl)n1` [Compound 27]: under “Table 1”, at 10 µM the inhibition was 46%.

For the compound `O=C(NCCc1ccccc1)n1nc(-c2ccc(Cl)cc2)c(-c2ccc(Cl)cc2Cl)n1` [Compound 103], at 10 µM the inhibition (Table 2) was 23.4%.

`CCCCCCCNC(=O)n1nc(-c2ccc(Cl)cc2)c(-c2ccc(Cl)cc2Cl)n1` [Compound 95] returned an inhibition at 10 µM (Table 2) of 14.9%.

In turn, `O=C(Cn1nc(-c2ccc(Cl)cc2Cl)c(-c2ccc(Cl)cc2Cl)n1)N[C@@H](CO)[C@H](O)c1ccccc1` [Compound 137] yielded an inhibition at 10 µM (Table 2) of 59.3%.

In the case of `CCCCCCOC(=O)Cn1nnc(-c2ccc(Cl)cc2Cl)c1-c1ccc(Cl)cc1` [Compound 56], where the note is “Table 1”, the inhibition at 10 µM amounted to 47.7%.

Turning to `CC(C)N(C(=O)Cn1nnc(-c2ccccc2)c1-c1ccccc1)C(C)C` [Compound 5], the inhibition at 10 µM (Table 1) stood at 18%.

Take `CCCCOC(=O)Cn1nnc(-c2cccc(C)c2)c1-c1cccc(C)c1` [Compound 63]: where the note is “Table 1”, the inhibition at 10 µM came out at 9.9%.

`O=C(Cn1nc(-c2ccc(Cl)cc2)c(-c2ccc(Cl)cc2Cl)n1)NC1CCc2ccccc21` (centres unmarked) [Compound 163] had an IC50 of 2070 ± 186 nM. This compound registered an inhibition at 10 µM (Table 2) of 76.6%.

For the setting “Table 1”, `CCCCCCOC(=O)Cn1nnc(-c2ccc(Cl)cc2)c1-c1ccc(Cl)cc1` [Compound 28] yielded an inhibition at 10 µM of 36.5%.
